{
  "source": "patent US20060100431A1",
  "about": "“Biologically active compounds” (Amura Therapeutics Limited, priority 2002, published 2006)",
  "key": {"Wild-type cruzipain": {"biological_target": "Wild-type cruzipain (Trypanosoma cruzi, UniProt P25779)", "sequence (P25779 whole entry)": "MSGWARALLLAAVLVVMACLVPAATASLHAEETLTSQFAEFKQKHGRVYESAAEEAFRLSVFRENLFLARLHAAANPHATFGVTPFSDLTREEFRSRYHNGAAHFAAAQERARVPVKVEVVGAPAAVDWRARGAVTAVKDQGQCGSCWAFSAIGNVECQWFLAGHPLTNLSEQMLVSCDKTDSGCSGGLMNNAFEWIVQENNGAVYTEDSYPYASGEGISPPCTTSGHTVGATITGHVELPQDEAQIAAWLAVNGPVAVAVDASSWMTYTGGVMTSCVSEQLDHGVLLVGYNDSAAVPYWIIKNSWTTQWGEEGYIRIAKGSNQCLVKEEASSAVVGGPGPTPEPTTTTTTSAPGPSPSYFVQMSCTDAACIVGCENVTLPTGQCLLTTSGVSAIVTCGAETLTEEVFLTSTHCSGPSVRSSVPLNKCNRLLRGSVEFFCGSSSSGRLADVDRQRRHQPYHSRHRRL", "assay": "Trypanosoma cruzi cruzipain peptidase activity assay (Ki)", "assay_type": "biochemical", "conditions": "read-out: Ki, inhibitors of cruzain and cruzipains", "outline": "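Native cruzipain from T. cruzi Dm28 epimastigotes, 2.5 nM, in 100 mM sodium phosphate pH 6.75 with 1 mM EDTA and 10 mM L-cysteine, 25 °C, DMSO <1%. Rates taken from continuous fluorogenic substrate read; Ki by regression assuming reversible pure-competitive inhibition.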"}, "CPB2.8ΔCTE": {"biological_target": "T1, CPB2.8ΔCTE (Leishmania mexicana, UniProt P36400)", "T1 construct": "Wild-type recombinant CPB without the C-terminal extention (i.e. CPB2.8ΔCTE); Dr. Jeremy Mottram (Wellcome Centre for Molecular Parasitology, University of Glasgow)", "T1 sequence (P36400 126-343, stated change not applied)": "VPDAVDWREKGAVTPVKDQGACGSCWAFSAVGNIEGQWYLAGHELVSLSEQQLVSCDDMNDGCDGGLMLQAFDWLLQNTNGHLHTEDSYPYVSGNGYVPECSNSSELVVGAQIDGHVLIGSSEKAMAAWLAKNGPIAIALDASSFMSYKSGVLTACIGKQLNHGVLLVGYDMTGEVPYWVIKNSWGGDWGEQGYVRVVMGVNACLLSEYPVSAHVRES", "assay": "Leishmania mexicana cysteine protease B (CPB) peptidase activity assay (Ki)", "assay_type": "biochemical", "conditions": "Ki, inhibitors of Leismania mexicana CPB protease", "protocol": "Unless otherwise stated, all general chemicals and biochemicals were purchased from either the Sigma Chemical Company, Poole, Dorset, U.K or from Fisher Scientific UK, Loughborough, Leicestershire, U.K. Absorbance assays were carried out in flat-bottomed 96-well plates (Spectra; Greiner Bio-One Ltd., Stonehouse, Gloucestershire, U.K.) using a SpectraMax PLUS384 plate reader (Molecular Devices, Crawley, U.K.). Fluorescence high throughput assays were carried out in either 384-well microtitre plates (Corning Costar 3705 plates, Fisher Scientific) or 96-well ‘U’ bottomed Microfluor W1 microtitre plates (Thermo Labsystems, Ashford, Middlesex, U.K.). Fluorescence assays were monitored using a SpectraMax Gemini fluorescence plate reader (Molecular Devices). For substrates employing either a 7-amino-4-methylcoumarin (AMC) or a 7-amino-4-trifluoromethylcoumarin (AFC) fluorophore, assays were monitored at an excitation wavelength of 365 nm and an emission wavelength of 450 nm and the fluorescence plate reader calibrated with AMC. For substrates employing a 3-amino-benzoyl (Abz) fluorophore, assays were monitored at an excitation wavelength of 310 nm and an emission wavelength of 445 nm; the fluorescence plate reader calibrated with 3-amino-benzamide (Fluka). Unless otherwise indicated, all the peptidase substrates were purchased from Bachem UK, St Helens, Merseyside, UK. Substrates utilizing fluorescence resonance energy transfer methodology (i.e. FRET-based substrates) were synthesized at Incenta Limited using published methods (Atherton & Sheppard, Solid Phase Peptide Synthesis, IRL Press, Oxford, U.K, 1989) and employed Abz (2-aminobenzoyl) as the fluorescence donor and 3-nitro-tyrosine [Tyr(NO2)] as the fluorescence quencher (Meldal, M. and Breddam, K., Anal. Biochem, 195, 141-147, 1991). Hydroxyethylpiperazine ethanesulfonate (HEPES), tris-hydroxylmethyl aminomethane (tris) base, bis-tris-propane and all the biological detergents (e.g. CHAPS, zwittergents, etc.) were purchased from CN Biosciences UK, Beeston, Nottinghamshire, U.K. Glycerol was purchased from Amersham Pharmacia Biotech, Little Chalfont, Buckinghamshire, U.K. Stock solutions of substrate or inhibitor were made up to 10 mM in 100% dimethylsulfoxide (DMSO) (Rathburns, Glasgow, U.K.) and diluted as appropriately required. In all cases the DMSO concentration in the assays was maintained at less than 1% (vol./vol.).\nAssay protocols were based on literature precedent (Table 4; Barrett, A. J., Rawlings, N. D. and Woessner, J. F., 1998, Handbook of Proteolytic Enzymes, Academic Press, London and references therein) and modified as required to suit local assay protocols. Enzyme was added as required to initiate the reaction and the activity, as judged by the change in fluorescence upon conversion of substrate to product, was monitored over time. All assays were carried out at 25±1° C.\nWild-type recombinant CPB without the C-terminal extention (i.e. CPB2.8ΔCTE; Sanderson, S. J., et. al., Biochem. J., 347, 383-388, 2000) was obtained from Dr. Jeremy Mottram (Wellcome Centre for Molecular Parasitology, The Anderson College, University of Glasgow, Glasgow, U.K.). Activity assays were carried out in 100 mM sodium acetate; pH 5.5 containing 1 mM EDTA; 200 mM NaCl and 10 mM DTT (Alves, L. C., et. al., Mol. Biochem. Parasitol, 116, 1-9, 2001) using 0.25 nM enzyme. […] The rate of conversion of substrate to product was derived from the slope of the increase in fluorescence monitored continuously over time.\nThe apparent inhibition constant (Ki) for each compound was determined on the basis that inhibition was reversible and occurred by a pure-competitive mechanism. The Ki values were calculated, from the dependence of enzyme activity as a function of inhibitor concentration, by direct regression analysis (Prism v 3.02) using Equation 2 (Cornish-Bowden, A., 1995.). [formula]"}},
  "data": [
    {"smiles": "CC(C)C[C@H](NC(=O)c1ccc(N(C)C)cc1)C(=O)N1CC[C@@H]2[C@H]1C(=O)CN2C(=O)Nc1ccccc1", "note": "[Example 167, (3aS,6aR)-4-[(2S)-2-(4-Dimethylamino-benzoylamino)-4-methyl-pentanoyl]-3-oxo-hexahydro-pyrrolo[3,2-b]pyrrole-1-carboxylic acid phenylamide]", "values": [
      {"measurement": "Ki", "setting": "Wild-type cruzipain", "value": "< 5", "unit": "µM"},
      {"measurement": "Ki", "setting": "CPB2.8ΔCTE", "value": "< 5", "unit": "µM"}
    ]},
    {"smiles": "CC(C)C[C@H](NC(=O)c1ccc(N(C)C)cc1)C(=O)N1OC[C@@H]2[C@H]1C(=O)CN2C(=O)c1ccccc1", "note": "[Example 248, (3aS,6aS)-N-[(1S)-1-(4-Benzoyl-6-oxo-hexahydro-2-oxa-1,4-diaza-pentalene-1-carbonyl)-3-methyl-butyl]-4-dimethylamino-benzamide]", "values": [
      {"measurement": "Ki", "setting": "Wild-type cruzipain", "value": "< 5", "unit": "µM"},
      {"measurement": "Ki", "setting": "CPB2.8ΔCTE", "value": "< 5", "unit": "µM"}
    ]},
    {"smiles": "NCc1cccc(C(=O)N[C@@H](Cc2ccc(O)cc2)C(=O)N2CC[C@@H]3[C@H]2C(=O)CN3C(=O)c2ccccc2)c1", "note": "[Example 319, (3aR,6aS)-3-Aminomethyl-N-[(1S)-2-(4-benzoyl-6-oxo-hexahydro-pyrrolo[3,2-b]pyrrole-1-yl)-1-(4-hydroxy-benzyl)-2-oxo-ethyl]-benzamide]", "values": [
      {"measurement": "Ki", "setting": "Wild-type cruzipain", "value": "< 5", "unit": "µM"},
      {"measurement": "Ki", "setting": "CPB2.8ΔCTE", "value": "< 5", "unit": "µM"}
    ]},
    {"smiles": "CC(C)C[C@H](NC(=O)c1ccc(C(C)(C)C)cc1)C(=O)N1CC[C@@H]2[C@H]1C(=O)CN2C(=O)[C@@H](N)CC(C)C", "note": "[Example 192, (3aR,6aS)-N-{(1S)-1-[4-((2S)-2-Amino-4-methyl-pentanoyl)-6-oxo-hexahydro-pyrrolo[3,2-b]pyrrole-1-carbonyl]-3-methyl-butyl}-4-tert-butyl-benzamide]", "values": [
      {"measurement": "Ki", "setting": "Wild-type cruzipain", "value": "< 5", "unit": "µM"},
      {"measurement": "Ki", "setting": "CPB2.8ΔCTE", "value": "< 5", "unit": "µM"}
    ]},
    {"smiles": "CC(C)C[C@H](NC(=O)c1ccc(N(C)C)cc1)C(=O)N1CC[C@@H]2[C@H]1C(=O)CN2C(=O)N1CCCC1", "note": "[Example 235, (3aR,6aS)-4-Dimethylamino-N-{(1S)-3-methyl-1-[6-oxo-4-(pyrrolidine-1-carbonyl)-hexahydro-pyrrolo[3,2-b]pyrrole-1-carbonyl]-butyl}-benzamide]", "values": [
      {"measurement": "Ki", "setting": "Wild-type cruzipain", "value": "< 5", "unit": "µM"},
      {"measurement": "Ki", "setting": "CPB2.8ΔCTE", "value": "< 5", "unit": "µM"}
    ]},
    {"smiles": "CC(C)C[C@H](NC(=O)c1ccc(C(C)(C)C)cc1)C(=O)N1CC[C@@H]2[C@H]1C(=O)CN2C(=O)C1COc2ccccc2O1", "note": "(stereo partly drawn) [Example 29, (3aR,6aS)-4-tert-Butyl-N-{(1S)-1-[4-(2,3-dihydrobenzo[1,4]dioxine-2-carbonyl)-6-oxo-hexahydro-pyrrolo[3,2-b]pyrrole-1-carbonyl]-3-methyl-butyl}-benzamide]", "values": [
      {"measurement": "Ki", "setting": "Wild-type cruzipain", "value": "< 5", "unit": "µM"},
      {"measurement": "Ki", "setting": "CPB2.8ΔCTE", "value": "< 5", "unit": "µM"}
    ]},
    {"smiles": "CC(C)C[C@H](NC(=O)c1ccc(N(C)C)cc1)C(=O)N1CC[C@@H]2[C@H]1C(=O)CN2C(=O)c1ccco1", "note": "[Example 96, (3aR,6aS)-4-Dimethylamino-N-{(1S)-1-[4-(furan-2-carbonyl)-6-oxo-hexahydro-pyrrolo[3,2-b]pyrrole-1-carbonyl]-3-methyl-butyl}-benzamide]", "values": [
      {"measurement": "Ki", "setting": "Wild-type cruzipain", "value": "< 5", "unit": "µM"},
      {"measurement": "Ki", "setting": "CPB2.8ΔCTE", "value": "< 5", "unit": "µM"}
    ]},
    {"smiles": "CC(C)C[C@H](NC(=O)c1ccc(N(C)C)cc1)C(=O)N1CC[C@@H]2[C@H]1C(=O)CN2C(=O)c1cc2ccccc2o1", "note": "[Example 101, (3aR,6aS)-N-{(1S)-1-[4-(Benzofuran-2-carbonyl)-6-oxo-hexahydro-pyrrolo[3,2-b]pyrrole-1-carbonyl]-3-methyl-butyl}-4-dimethylamino-benzamide]", "values": [
      {"measurement": "Ki", "setting": "Wild-type cruzipain", "value": "< 5", "unit": "µM"},
      {"measurement": "Ki", "setting": "CPB2.8ΔCTE", "value": "< 5", "unit": "µM"}
    ]},
    {"smiles": "COc1cc(OC)cc(C(=O)N2CC(=O)[C@@H]3[C@H]2CCN3C(=O)[C@H](CC(C)C)NC(=O)c2ccc(N(C)C)cc2)c1", "note": "[Example 112, (3aR,6aS)-N-{(1S)-1-[4-(3,5-Dimethoxy-benzoyl)-6-oxo-hexahydropyrrolo[3,2-b]pyrrole-1-carbonyl]-3-methyl-butyl}-4-dimethylamino-benzamide]", "values": [
      {"measurement": "Ki", "setting": "CPB2.8ΔCTE", "value": "< 5", "unit": "µM"}
    ]},
    {"smiles": "CCCC(C)C(=O)N1CC(=O)[C@@H]2[C@H]1CCN2C(=O)[C@H](CC(C)C)NC(=O)c1ccc(N(C)C)cc1", "note": "(stereo partly drawn) [Example 230, (3aR,6aS)-4-Dimethylamino-N-{(1S)-3-methyl-1-[4-(2-methyl-pentanoyl)-6-oxo-hexahydro-pyrrolo[3,2-b]pyrrole-1-carbonyl]-butyl}-benzamide]", "values": [
      {"measurement": "Ki", "setting": "CPB2.8ΔCTE", "value": "< 5", "unit": "µM"}
    ]},
    {"smiles": "Cc1ccc(C[C@H](NC(=O)c2ccc(C(C)(C)C)cc2)C(=O)N2CC[C@@H]3[C@H]2C(=O)CN3C(=O)Cc2ccccc2)cc1", "note": "[Example 360, (3aR,6aS)-4-tert-Butyl-N-[(1S)-1-(4-methyl-benzyl)-2-oxo-2-(6-oxo-4-phenylacetyl-hexahydro-pyrrolo[3,2-b]pyrrole-1-yl)-ethyl]-benzamide]", "values": [
      {"measurement": "Ki", "setting": "CPB2.8ΔCTE", "value": "< 5", "unit": "µM"}
    ]},
    {"smiles": "CC(C)CC[C@H](N)C(=O)N1CC(=O)[C@@H]2[C@H]1CCN2C(=O)[C@H](CC(C)C)NC(=O)c1ccc(N(C)C)cc1", "note": "[Example 213, (3aR,6aS)-N-{(1S)-1-[4-((2S)-2-Amino-5-methyl-hexanoyl)-6-oxo-hexahydro-pyrrolo[3,2-b]pyrrole-1-carbonyl]-3-methyl-butyl}-4-dimethylamino-benzamide]", "values": [
      {"measurement": "Ki", "setting": "CPB2.8ΔCTE", "value": "< 5", "unit": "µM"}
    ]},
    {"smiles": "CC(=O)N(C)CC(=O)N1CC(=O)[C@@H]2[C@H]1CCN2C(=O)[C@H](CC(C)C)NC(=O)c1ccc(N(C)C)cc1", "note": "[Example 201, (3aR,6aS)-N-((1S)-1-{4-[2-(Acetyl-methyl-amino)-acetyl]-6-oxo-hexahydro-pyrrolo[3,2-b]pyrrole-1-carbonyl}-3-methyl-butyl)-4-dimethylamino-benzamide]", "values": [
      {"measurement": "Ki", "setting": "CPB2.8ΔCTE", "value": "< 5", "unit": "µM"}
    ]},
    {"smiles": "CC(C)C[C@H](NC(=O)c1cccc(CN)c1)C(=O)N1CC[C@@H]2[C@H]1C(=O)CN2C(=O)[C@@H](C)c1ccccc1", "note": "[Example 177, (3aR,6aS)-3-Aminomethyl-N-{(1S)-3-methyl-1-[6-oxo-4-((2S)-2-phenyl-propionyl)-hexahydro-pyrrolo[3,2-b]pyrrole-1-carbonyl]-butyl}-benzamide]", "values": [
      {"measurement": "Ki", "setting": "CPB2.8ΔCTE", "value": "< 5", "unit": "µM"}
    ]},
    {"smiles": "CC(C)C[C@H](NC(=O)c1ccc(N(C)C)cc1)C(=O)N1CC[C@@H]2[C@H]1C(=O)CN2C(=O)c1ccc(C(C)(C)C)cc1", "note": "[Example 75, (3aR,6aS)-N-{(1S)-1-[4-(4-tert-Butyl-benzoyl)-6-oxo-hexahydro-pyrrolo[3,2-b]pyrrole-1-carbonyl]-3-methyl-butyl}-4-dimethylamino-benzamide]", "values": [
      {"measurement": "Ki", "setting": "CPB2.8ΔCTE", "value": "< 5", "unit": "µM"}
    ]},
    {"smiles": "CC(C)C[C@H](NC(=O)c1ccc(C(C)(C)C)cc1)C(=O)N1CC[C@@H]2[C@H]1C(=O)CN2S(=O)(=O)c1ccccc1", "note": "[Example 119, (3aR,6aS)-N-[(1S)-1-(4-Benzenesulfonyl-6-oxo-hexahydro-pyrrolo[3,2-b]pyrrole-1-carbonyl)-3-methyl-butyl]-4-tert-butyl-benzamide]", "values": [
      {"measurement": "Ki", "setting": "CPB2.8ΔCTE", "value": "< 5", "unit": "µM"}
    ]},
    {"smiles": "CC(C)C[C@H](NC(=O)c1ccc(N(C)C)cc1)C(=O)N1CC[C@@H]2[C@H]1C(=O)CN2C(=O)[C@H](CC(N)=O)NC(=O)OCc1ccccc1", "note": "[Example 148, (3aS,6aR)-((1S)-1-Carbamoylmethyl-2-{4-[(2S)-2-(4-dimethylaminobenzoylamino)-4-methyl-pentanoyl]-3-oxo-hexahydro-pyrrolo[3,2-b]pyrrol-1-yl}-2-oxo-ethyl)-carbamic acid benzyl ester]", "values": [
      {"measurement": "Ki", "setting": "CPB2.8ΔCTE", "value": "< 5", "unit": "µM"}
    ]},
    {"smiles": "CC(C)C[C@H](NC(=O)c1ccc(N(C)C)cc1)C(=O)N1CC[C@@H]2[C@H]1C(=O)CN2C(=O)[C@@H](N)CC1CCCCC1", "note": "[Example 215, (3aR,6aS)-N-{(1S)-1-[4-((2S)-2-Amino-3-cyclohexyl-propionyl)-6-oxo-hexahydro-pyrrolo[3,2-b]pyrrole-1-carbonyl]-3-methyl-butyl}-4-dimethylamino-benzamide]", "values": [
      {"measurement": "Ki", "setting": "CPB2.8ΔCTE", "value": "< 5", "unit": "µM"}
    ]}
  ]
}
